From US10702531B2, “Pyrazolopyrimidine compound as PI3K inhibitor and use thereof” (Shenzhen Bo Li Jian Medicine Co., Ltd., priority 2016, dated 2020) come the findings set out here.

Experiment [1] has as its target T1, PI3Kδ kinase (p110δ/p85α) (Homo sapiens, UniProt O00329).
T1 construct: purchased Millipore 14-604-K
As to the kind of experiment: Activity of PI3Kδ kinase by ADP-Glo method. Format: biochemical. Conditions: 17 nM kinase, 50 μM PIP2, 25 μM ATP. The procedure:
Activity of PI3Kδ kinase was tested by ADP-Glo method. ADP-Glo was obtained from Promega (#V9101). p110δ/p85α was obtained from Millipore (#14-604-K). The IC50 of each of the compounds was evaluated by testing the compound at 10 concentrations. The starting concentration was 1 μM, and then a 3-fold serial dilution was performed. Buffer solutions for the testing were 50 mM HEPES pH 7.5, 3 mM MgCl2, 1 mM EGTA, 100 mM NaCl, 0.03% CHAPS, and 2 mM DTT. The final concentration of the PI3Kδ kinase was 17 nM; the final concentration of PIP2 was 50 μM; and the final concentration of ATP was 25 μM.
1. Preparation of 10 μL of kinase reaction solution: 2.5 μL of test compound solution, 2.5 μL of kinase solution, and 5 μL of substrate solution were added to each well of a 384-well plate (Corning #4512).
2. The 384-well plate was covered and incubated at room temperature for 60 minutes.
3. 5 μL of reaction solution was transferred from each well to the wells of a new 384-well plate.
4. 5 μL of ADP-Glo reagent was added to the wells of the 384-well plate to terminate the reaction.
5. The 384-well plate was shaken gently on a shaking machine. 6. 10 μL of kinase detection reagent was added to each of the wells, followed by shaking for 1 minute and allowing to standing at room temperature for 30 minutes.
8. The luminescence values of the sample were read using Synegy. 9. Data were processed using Excel and was curve-fitted using XLFit software to obtain the IC50 value of each of the compounds (Table 1).
In general terms: ADP-Glo first removes unused ATP, then detects ADP through luciferase.

Another experiment has as its system lymphoma cell SU-DHL-6. As to the kind of experiment: CellTiter-Glo inhibition of proliferation of lymphoma cell SU-DHL-6. Format: cell-based. The settings on record: Homo sapiens, 72 hours. On the procedure: CellTiter-Glo testing method was used to test the inhibition of the proliferation of lymphoma cell SU-DHL-6 (ATCC, Catalog number: CRL-2959) by the compounds. The cell culture solution used in the test was RPMI1640 (Invitrogen, Catalog number: 11875-093). 10% fetal calf serum (Invitrogen, Catalog number: 10099-141) was used in the test.
100 μL of culture solution containing 15000 cells was distributed to wells of a 96-well plate (Corning #3903). The plate was placed in a carbon dioxide incubator overnight. 0.5 μL of the compound (which was prepared using DMSO to have eight continuous concentration gradients) to be tested was added to each of the wells the next day. Each concentration was set with two replicates, and a well without cell (blank control) and a DMSO-well (solvent control). After dosing, the cells were cultured at 37° C. in 5% CO2 atmosphere for 72 hours. At last, 100 μL of CellTiter-Glo agent (Promega, Catalog number: G7571) was added to each of the wells. Luminescence signal was detected using Flex Station3 (Molecular Devices), and the IC50 value of each of the compounds inhibiting cell proliferation was calculated using XLfit software (Table 1).
On the technique in general: ATP-based viability assays read luminescence as a measure of living cells.

Where only a bound is given, the exact number is not on record here.

T1 sequence (O00329 whole entry): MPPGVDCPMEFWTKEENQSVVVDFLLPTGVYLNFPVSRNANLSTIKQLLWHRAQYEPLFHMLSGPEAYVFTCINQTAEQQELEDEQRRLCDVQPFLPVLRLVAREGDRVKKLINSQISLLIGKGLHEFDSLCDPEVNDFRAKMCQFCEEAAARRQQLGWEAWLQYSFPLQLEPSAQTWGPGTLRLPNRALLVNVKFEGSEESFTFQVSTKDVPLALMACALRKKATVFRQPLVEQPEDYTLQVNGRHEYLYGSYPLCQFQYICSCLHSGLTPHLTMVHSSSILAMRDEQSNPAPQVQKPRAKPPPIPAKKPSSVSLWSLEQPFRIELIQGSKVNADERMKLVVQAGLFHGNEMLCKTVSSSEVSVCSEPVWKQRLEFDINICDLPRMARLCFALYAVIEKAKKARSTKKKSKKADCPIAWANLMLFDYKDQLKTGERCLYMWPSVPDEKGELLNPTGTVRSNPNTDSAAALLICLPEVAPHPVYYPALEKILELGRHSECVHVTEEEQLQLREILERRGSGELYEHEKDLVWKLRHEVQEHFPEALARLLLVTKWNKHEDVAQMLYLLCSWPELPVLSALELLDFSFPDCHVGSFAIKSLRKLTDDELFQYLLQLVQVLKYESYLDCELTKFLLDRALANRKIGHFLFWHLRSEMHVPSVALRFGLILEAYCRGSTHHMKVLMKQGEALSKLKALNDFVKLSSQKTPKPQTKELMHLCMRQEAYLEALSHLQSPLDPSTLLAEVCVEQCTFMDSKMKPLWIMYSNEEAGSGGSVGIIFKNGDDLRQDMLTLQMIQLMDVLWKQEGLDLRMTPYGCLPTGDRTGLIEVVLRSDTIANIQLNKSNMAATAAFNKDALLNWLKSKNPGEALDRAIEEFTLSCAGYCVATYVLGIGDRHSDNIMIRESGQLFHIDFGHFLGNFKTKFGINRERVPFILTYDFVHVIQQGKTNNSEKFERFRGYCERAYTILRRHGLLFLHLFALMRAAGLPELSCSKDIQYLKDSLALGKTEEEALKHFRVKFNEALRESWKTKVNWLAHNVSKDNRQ
T1 sequence (P27986 whole entry partner): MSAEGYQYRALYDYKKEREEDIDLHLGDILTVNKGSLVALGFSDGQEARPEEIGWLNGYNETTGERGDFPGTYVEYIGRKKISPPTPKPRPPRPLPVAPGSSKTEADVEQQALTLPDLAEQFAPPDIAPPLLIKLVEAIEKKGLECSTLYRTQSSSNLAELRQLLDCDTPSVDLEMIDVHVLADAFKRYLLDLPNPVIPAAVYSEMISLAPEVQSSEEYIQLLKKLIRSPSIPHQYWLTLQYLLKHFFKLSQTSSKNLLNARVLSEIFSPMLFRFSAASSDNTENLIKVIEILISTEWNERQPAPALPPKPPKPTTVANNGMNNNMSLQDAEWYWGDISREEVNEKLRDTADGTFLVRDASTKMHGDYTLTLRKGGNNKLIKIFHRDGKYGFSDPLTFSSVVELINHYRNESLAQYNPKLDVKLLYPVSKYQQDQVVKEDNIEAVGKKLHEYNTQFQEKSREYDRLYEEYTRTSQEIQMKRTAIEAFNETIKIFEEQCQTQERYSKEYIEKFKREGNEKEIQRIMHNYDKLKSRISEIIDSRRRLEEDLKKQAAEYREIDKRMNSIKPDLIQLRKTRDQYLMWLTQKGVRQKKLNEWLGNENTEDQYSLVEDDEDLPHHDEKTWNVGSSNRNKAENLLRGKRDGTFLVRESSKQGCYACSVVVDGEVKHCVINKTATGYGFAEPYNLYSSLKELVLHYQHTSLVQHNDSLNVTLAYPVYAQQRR

What is called IC50 is the midpoint of a concentration-inhibition curve. High values mean a need for much substance, low ones inhibition by little substance. With `C[C@H](Nc1nc(N)nc(N)c1C#N)c1cn2ncc(Cl)c2nc1-c1cccc(F)c1` [Example 3, (S)-2,4-diamino-6-(1-(3-chloro-5-(3-fluorophenyl)pyrazolo[1,5-a]pyrimidin-6-yl)ethylamino)pyrimidin-5-carbonitrile], the IC50 (in experiment [1]; in the experiment with lymphoma cell SU-DHL-6) was under 20 nM each time.

With `C[C@H](Nc1ncnc(N)c1C#N)c1cn2ncc(Cl)c2nc1-c1cccc(F)c1` [Example 4, (S)-4-amino-6-(1-(3-chloro-5-(3-fluorophenyl)pyrazolo[1,5-a]pyrimidin-6-yl)ethylamino)pyrimidin-5-carbonitrile], the results for the IC50 (in experiment [1]; in the experiment on lymphoma cell SU-DHL-6) were under 20 nM and 20 to 100 nM, respectively.

Regarding `C[C@H](Nc1nc(N)nc(N)c1C#N)c1cn2ncc(Cl)c2nc1-c1ccccc1` [Example 2, (S)-2,4-diamino-6-(1-(3-chloro-5-phenylpyrazolo[1,5-a]pyrimidin-6-yl)ethylamino)pyrimidin-5-carbonitrile], the IC50 (in experiment [1]; with lymphoma cell SU-DHL-6) was under 20 nM throughout.

As to `Cc1nc(N)nc(N[C@@H](C)c2cn3ncc(Cl)c3nc2-c2ccccc2)c1C#N` [Example 5, (S)-2-amino-4-((1-(3-chloro-5-phenylpyrazolo[1,5-a]pyrimidin-6-yl)ethyl)amino)-6-methylpyrimidin-5-carbonitrile], the IC50 was under 20 nM in experiment [1] and 20 to 100 nM in the experiment on lymphoma cell SU-DHL-6.

Consider `C[C@H](Nc1ncnc(N)c1C#N)c1cn2ncc(Cl)c2nc1-c1ccccc1` [Example 1, (S)-4-amino-6-(1-(3-chloro-5-phenylpyrazolo[1,5-a]pyrimidin-6-yl)ethylamino) pyrimidin-5-carbonitrile], for which the IC50 in experiment [1] is under 20 nM; with lymphoma cell SU-DHL-6, 20 to 100 nM.
